Measurements taken from patent US8952024B2, “Herbicidal pyrimidone derivatives” (E I du Pont de Nemours and Company, priority 2009, dated 2015).

Columns and labels:
Experiment in all cases: Test B pre-/postemergence plant response
Type in all cases: in vivo
[1] = system: Italian ryegrass (Lolium multiflorum); details: for Plant response rating, Ryegrass, Italian: Postemergence
How it was run: (§1)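 Seeds were sown in loam soil/sand blend and treated preemergence with compound in non-phytotoxic solvent mixture containing surfactant; postemergence sprays, same formulation, went onto plants 2 to 18 cm (1- to 4-leaf stage) in peat-based planting medium. Greenhouse 13 to 15 days, then visual rating versus untreated controls, 0 (no effect) to 100 (complete control).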

[2] = system: blackgrass (Alopecurus myosuroides); details: for Plant response rating, Blackgrass: Postemergence
How it was run: as §1

[3] = system: cocklebur (Xanthium strumarium); details: for Plant response rating, Cocklebur: Postemergence
How it was run: as §1

corn (Zea mays) = details: for Plant response rating, Corn: Postemergence
How it was run: as §1

[4] = system: giant foxtail (Setaria faberii); details: for Plant response rating, Foxtail, Giant: Postemergence
How it was run: as §1

[5] = system: goosegrass (Eleusine indica); details: for Plant response rating, Goosegrass: Postemergence
How it was run: as §1

[6] = system: green foxtail (Setaria viridis); details: for Plant response rating, Foxtail, Green: Postemergence
How it was run: as §1

[7] = system: johnsongrass (Sorghum halepense); details: for Plant response rating, Johnsongrass: Postemergence
How it was run: as §1

kochia (Kochia scoparia) = details: for Plant response rating, Kochia: Postemergence
How it was run: as §1

[8] = system: large crabgrass (Digitaria sanguinalis); details: for Plant response rating, Crabgrass, Large: Postemergence
How it was run: as §1

[9] = system: morningglory (Ipomoea coccinea); details: for Plant response rating, Morningglory: Postemergence
How it was run: as §1

[10] = system: ragweed (common ragweed, Ambrosia elatior); details: for Plant response rating, Ragweed: Postemergence
How it was run: as §1

soybean (Glycine max) = details: for Plant response rating, Soybean: Postemergence
How it was run: as §1

[11] = system: velvetleaf (Abutilon theophrasti); details: for Plant response rating, Velvetleaf: Postemergence
How it was run: as §1

[12] = 62 g ai/ha, postemergence, 0 is no effect, 100 is complete control, 13 to 15 days
[13] = 31 g ai/ha, 0 to 100 scale (0 no effect, 100 complete control)
[14] = 125 g ai/ha, scale 0 to 100 (0 no effect, 100 complete control)
[15] = 250 g ai/ha, scale 0 to 100 (0 no effect, 100 complete control), 13 to 15 days

CCCn1c(-c2cccc(Br)c2)ncc(C(=O)C2=C(O)CCCC2=O)c1=O [Compound 141]
Ryegrass, Italian plant response rating (0 to 100 scale) [1, 12]: 0
Plant response rating, Ryegrass, Italian [1, 13]: 0
Plant response rating, Ryegrass, Italian [1, 14]: 0
Plant response rating, Ryegrass, Italian [1, 15]: 5
Blackgrass plant response rating (0 to 100 scale) [2, 12]: 5
Plant response rating, Blackgrass [2, 13]: 5
Plant response rating, Blackgrass [2, 14]: 10
Plant response rating, Blackgrass [2, 15]: 25
Cocklebur plant response rating (0 to 100 scale) [3, 12]: 65
Plant response rating, Cocklebur [3, 13]: 40
Plant response rating, Cocklebur [3, 14]: 95
Plant response rating, Cocklebur [3, 15]: 100
Corn plant response rating (0 to 100 scale) (corn (Zea mays); [12]): 45
Plant response rating, Corn (corn (Zea mays); [13]): 0
Plant response rating, Corn (corn (Zea mays); [14]): 45
Plant response rating, Corn (corn (Zea mays); [15]): 45
Foxtail, Giant plant response rating (0 to 100 scale) [4, 12]: 75
Plant response rating, Foxtail, Giant [4, 13]: 75
Plant response rating, Foxtail, Giant [4, 14]: 80
Plant response rating, Foxtail, Giant [4, 15]: 85
Goosegrass plant response rating (0 to 100 scale) [5, 12]: 75
Plant response rating, Goosegrass [5, 13]: 65
Plant response rating, Goosegrass [5, 14]: 75
Plant response rating, Goosegrass [5, 15]: 80
Foxtail, Green plant response rating (0 to 100 scale) [6, 12]: 75
Plant response rating, Foxtail, Green [6, 13]: 50
Plant response rating, Foxtail, Green [6, 14]: 90
Plant response rating, Foxtail, Green [6, 15]: 90
Johnsongrass plant response rating (0 to 100 scale) [7, 12]: 15
Plant response rating, Johnsongrass [7, 13]: 15
Plant response rating, Johnsongrass [7, 14]: 50
Plant response rating, Johnsongrass [7, 15]: 65
Kochia plant response rating (0 to 100 scale) (kochia (Kochia scoparia); [12]): 65
Plant response rating, Kochia (kochia (Kochia scoparia); [13]): 20
Plant response rating, Kochia (kochia (Kochia scoparia); [14]): 85
Plant response rating, Kochia (kochia (Kochia scoparia); [15]): 90
Crabgrass, Large plant response rating (0 to 100 scale) [8, 12]: 75
Plant response rating, Crabgrass, Large [8, 13]: 70
Plant response rating, Crabgrass, Large [8, 14]: 80
Plant response rating, Crabgrass, Large [8, 15]: 85
Morningglory plant response rating (0 to 100 scale) [9, 12]: 60
Plant response rating, Morningglory [9, 13]: 60
Plant response rating, Morningglory [9, 14]: 60
Plant response rating, Morningglory [9, 15]: 65
Ragweed plant response rating (0 to 100 scale) [10, 12]: 75
Plant response rating, Ragweed [10, 13]: 65
Plant response rating, Ragweed [10, 14]: 85
Plant response rating, Ragweed [10, 15]: 95
Soybean plant response rating (0 to 100 scale) (soybean (Glycine max); [12]): 70
Plant response rating, Soybean (soybean (Glycine max); [13]): 70
Plant response rating, Soybean (soybean (Glycine max); [14]): 75
Plant response rating, Soybean (soybean (Glycine max); [15]): 90
Velvetleaf plant response rating (0 to 100 scale) [11, 12]: 95
Plant response rating, Velvetleaf [11, 13]: 75
Plant response rating, Velvetleaf [11, 14]: 98
Plant response rating, Velvetleaf [11, 15]: 98
